{"source": "patent US8410117B2", "about": "“Imidazopyrimidine derivatives” (Hoffmann-La Roche Inc., priority 2010, dated 2013)", "molecular_target": "T1, human PDE10A (Homo sapiens, UniProt Q9Y233)", "T1 construct": "The human PDE10A full length assay; purchased Enzo Life Science, Lausen, Switzerland SE-534", "T1 sequence (Q9Y233 1-779 isoform Q9Y233-1)": "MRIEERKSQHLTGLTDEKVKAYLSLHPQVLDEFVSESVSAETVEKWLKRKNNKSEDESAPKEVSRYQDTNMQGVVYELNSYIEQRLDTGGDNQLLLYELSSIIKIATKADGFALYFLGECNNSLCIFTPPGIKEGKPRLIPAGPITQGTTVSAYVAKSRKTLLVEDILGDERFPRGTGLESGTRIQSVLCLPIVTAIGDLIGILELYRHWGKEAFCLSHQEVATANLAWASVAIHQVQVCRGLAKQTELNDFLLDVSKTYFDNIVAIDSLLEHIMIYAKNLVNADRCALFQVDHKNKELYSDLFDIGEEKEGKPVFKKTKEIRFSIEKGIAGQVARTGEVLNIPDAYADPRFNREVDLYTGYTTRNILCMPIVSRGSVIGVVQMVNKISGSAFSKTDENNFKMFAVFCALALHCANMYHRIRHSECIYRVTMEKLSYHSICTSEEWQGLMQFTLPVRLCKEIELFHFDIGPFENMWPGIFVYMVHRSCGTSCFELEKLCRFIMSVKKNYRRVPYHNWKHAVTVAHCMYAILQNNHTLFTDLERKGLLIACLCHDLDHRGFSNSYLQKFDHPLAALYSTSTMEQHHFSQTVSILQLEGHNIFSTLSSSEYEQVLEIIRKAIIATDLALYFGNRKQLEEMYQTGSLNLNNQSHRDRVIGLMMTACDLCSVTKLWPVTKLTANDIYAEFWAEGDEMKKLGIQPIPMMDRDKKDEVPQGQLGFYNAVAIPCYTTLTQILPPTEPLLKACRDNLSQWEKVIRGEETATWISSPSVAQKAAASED", "assay": "human PDE10A full length Scintillation Proximity Assay (SPA)", "assay_type": "biochemical", "conditions": "50 nM cGMP and 50 nM [3H]-cGMP, 20 minutes at room temperature; read-out: PDE10A inhibition IC50", "method": "The following test was carried out in order to determine the activity of the compounds of the present invention. PDE10 activity of the compounds of the present invention was determined using a Scintillation Proximity Assay (SPA)-based method similar to the one previously described (Fawcett, L. et al., Proc Natl Acad Sci USA (2000) 97(7):3702-3707).\nThe human PDE10A full length assay was performed in 96-well micro titer plates. The reaction mixture of 50 μl contained 20 mM HEPES pH=7.5/10 mM MgCl2/0.05 mg/ml BSA (Sigma cat. #A-7906), 50 nM cGMP (Sigma, cat. #G6129) and 50 nM [^3H]-cGMP (GE Healthcare, cat. #TRK392 S.A. 13.2 Ci/mmol), 3.75 ng/well PDE10A enzyme (Enzo Life Science, Lausen, Switzerland cat #SE-534) with or without a specific test compound. A range of concentrations of the potential inhibitor was used to generate data for calculating the concentration of inhibitor resulting in 50% of the effect (e.g. IC50, the concentration of the competitor inhibiting PDE10A activity by 50%). Non-specific activity was tested without the enzyme. The reaction was initiated by the addition of the substrate solution (cGMP and [^3H]-cGMP) and allowed to progress for 20 minutes at room temperature. The reaction was terminated by adding 25 μl of YSi-SPA scintillation beads (GE Healthcare, cat. #RPNQ0150) in 18 mM zinc sulphate solution (stop reagent). After 1 h under shaking, the plate was centrifuged one minute at 170 g to allow beads to settle. Afterwards, radioactive counts were measured on a Perkin Elmer TopCount Scintillation plate reader."}
{"compound": "Cn1ncc(C(=O)NC2(C#N)CC2)c1C(=O)Nc1ccn2cc(-c3ccccc3)nc2n1", "note": "[Example 145, N4-(1-cyanocyclopropyl)-1-methyl-N5-(2-phenylimidazo[1,2-a]pyrimidin-7-yl)-1H-pyrazole-4,5-dicarboxamide]", "values": [{"measurement": "IC50", "value": 210, "unit": "nM"}]}
{"compound": "Cn1ncc(C(=O)NC2CC2)c1C(=O)Nc1ccn2cc(-c3ccccc3)nc2n1", "note": "[Example 51, 2-Methyl-2H-pyrazole-3,4-dicarboxylic acid 4-cyclopropylamide 3-[(2-phenyl-imidazo[1,2-a]pyrimidin-7-yl)-amide]]", "values": [{"measurement": "IC50", "value": 14.8, "unit": "nM"}]}
{"compound": "Cn1ncc(C(=O)N2CCC2)c1C(=O)Nc1ccn2cc(-c3cccc(OC(F)(F)F)c3)nc2n1", "note": "[Example 61, 4-(Azetidine-1-carbonyl)-2-methyl-2H-pyrazole-3-carboxylic acid [2-(3-trifluoromethoxy-phenyl)-imidazo[1,2-a]pyrimidin-7-yl]-amide]", "values": [{"measurement": "IC50", "value": 23.5, "unit": "nM"}]}
{"compound": "Cn1ncc(C(=O)N2CCOCC2)c1C(=O)Nc1ccn2cc(-c3ccccc3)nc2n1", "note": "[Example 30, 2-Methyl-4-(morpholine-4-carbonyl)-2H-pyrazole-3-carboxylic acid (2-phenyl-imidazo[1,2-a]pyrimidin-7-yl)-amide]", "values": [{"measurement": "IC50", "value": 33.1, "unit": "nM"}]}
{"compound": "CCc1cc(CNC(=O)c2cnn(C)c2C(=O)Nc2ccn3cc(-c4ccccc4)nc3n2)on1", "note": "[Example 160, N4-((3-ethylisoxazol-5-yl)methyl)-1-methyl-N5-(2-phenylimidazo[1,2-a]pyrimidin-7-yl)-1H-pyrazole-4,5-dicarboxamide]", "values": [{"measurement": "IC50", "value": 459, "unit": "nM"}]}
{"compound": "Cn1ncc(C(=O)N2CCC2)c1C(=O)Nc1ccn2cc(-c3ccccc3)nc2n1", "note": "[Example 29, 4-(Azetidine-1-carbonyl)-2-methyl-2H-pyrazole-3-carboxylic acid (2-phenyl-imidazo[1,2-a]pyrimidin-7-yl)-amide]", "values": [{"measurement": "IC50", "value": 3.3, "unit": "nM"}]}
{"compound": "O=C(Nc1ccn2cc(-c3ccccc3)nc2n1)c1nc(C2CC2)ccc1Nc1cncnc1", "note": "[Example 77, 6-Cyclopropyl-3-(pyrimidin-5-ylamino)-pyridine-2-carboxylic acid (2-phenyl-imidazo[1,2-a]pyrimidin-7-yl)-amide]", "values": [{"measurement": "IC50", "value": 6.3, "unit": "nM"}]}
{"compound": "Cn1ncc(C(=O)NCc2nc(C3CC3)no2)c1C(=O)Nc1ccn2cc(-c3ccccc3)nc2n1", "note": "[Example 167, N4-((3-cyclopropyl-1,2,4-oxadiazol-5-yl)methyl)-1-methyl-N5-(2-phenylimidazo[1,2-a]pyrimidin-7-yl)-1H-pyrazole-4,5-dicarboxamide]", "values": [{"measurement": "IC50", "value": 825, "unit": "nM"}]}
{"compound": "Cn1ncc(C(=O)N2CCC2)c1C(=O)Nc1ccn2cc(-c3cccc(OCF)c3)nc2n1", "note": "[Example 82, 4-(Azetidine-1-carbonyl)-N-(2-(3-(fluoromethoxy)phenyl)imidazo[1,2-a]pyrimidin-7-yl)-1-methyl-1H-pyrazole-5-carboxamide]", "values": [{"measurement": "IC50", "value": 3.4, "unit": "nM"}]}
{"compound": "Cn1ncc(C(=O)NCCF)c1C(=O)Nc1ccn2cc(-c3ccccc3)nc2n1", "note": "[Example 123, N4-(2-fluoroethyl)-1-methyl-N5-(2-phenylimidazo[1,2-a]pyrimidin-7-yl)-1H-pyrazole-4,5-dicarboxamide]", "values": [{"measurement": "IC50", "value": 17.3, "unit": "nM"}]}
{"compound": "C=CCn1ncc(C(=O)N2CCC2)c1C(=O)Nc1ccn2cc(-c3ccccc3)nc2n1", "note": "[Example 120, 1-allyl-4-(azetidine-1-carbonyl)-N-(2-phenylimidazo[1,2-a]pyrimidin-7-yl)-1H-pyrazole-5-carboxamide]", "values": [{"measurement": "IC50", "value": 13.7, "unit": "nM"}]}
{"compound": "Cc1nn(C)c(CNC(=O)c2cnn(C)c2C(=O)Nc2ccn3cc(-c4ccccc4)nc3n2)c1[N+](=O)[O-]", "note": "[Example 140, N4-((1,3-dimethyl-4-nitro-1H-pyrazol-5-yl)methyl)-1-methyl-N5-(2-phenylimidazo[1,2-a]pyrimidin-7-yl)-1H-pyrazole-4,5-dicarboxamide]", "values": [{"measurement": "IC50", "value": 151, "unit": "nM"}]}
{"compound": "COc1cccc(-c2cn3ccc(NC(=O)c4c(C(=O)N5CC(F)C5)cnn4C)nc3n2)c1", "note": "[Example 98, 4-(3-Fluoro-azetidine-1-carbonyl)-2-methyl-2H-pyrazole-3-carboxylic acid [2-(3-methoxy-phenyl)-imidazo[1,2-a]pyrimidin-7-yl]-amide]", "values": [{"measurement": "IC50", "value": 14.7, "unit": "nM"}]}
{"compound": "CCN(C)C(=O)c1cnn(C)c1C(=O)Nc1ccn2cc(-c3ccccc3)nc2n1", "note": "[Example 49, 2-Methyl-2H-pyrazole-3,4-dicarboxylic acid 4-(ethyl-methyl-amide) 3-[(2-phenyl-imidazo[1,2-a]pyrimidin-7-yl)-amide]]", "values": [{"measurement": "IC50", "value": 1.9, "unit": "nM"}]}
{"compound": "CCN(C)C(=O)c1cn(C)nc1C(=O)Nc1ccn2cc(-c3ccccc3)nc2n1", "note": "[Example 68, 1-Methyl-1H-pyrazole-3,4-dicarboxylic acid 4-(ethyl-methyl-amide) 3-[(2-phenyl-imidazo[1,2-a]pyrimidin-7-yl)-amide]]", "values": [{"measurement": "IC50", "value": 37.7, "unit": "nM"}]}
{"compound": "O=C(Nc1ccn2cc(-c3ccccc3)nc2n1)c1ccnn1-c1ccccc1", "note": "[Example 4, 2-Phenyl-2H-pyrazole-3-carboxylic acid (2-phenyl-imidazo[1,2-a]pyrimidin-7-yl)-amide]", "values": [{"measurement": "IC50", "value": 671, "unit": "nM"}]}
{"compound": "Cn1ncc(C(=O)N2CCC2)c1C(=O)Nc1ccn2cc(-c3cccc(OCCF)c3)nc2n1", "note": "[Example 103, 4-(Azetidine-1-carbonyl)-2-methyl-2H-pyrazole-3-carboxylic acid {2-[3-(2-fluoro-ethoxy)-phenyl]imidazo[1,2-a]pyrimidin-7-yl}-amide]", "values": [{"measurement": "IC50", "value": 28.7, "unit": "nM"}]}
{"compound": "O=C(NCC(F)(F)F)c1nccnc1C(=O)Nc1ccn2cc(-c3ccccc3)nc2n1", "note": "[Example 43, Pyrazine-2,3-dicarboxylic acid 2-[(2-phenyl-imidazo[1,2-a]pyrimidin-7-yl)-amide]3-[(2,2,2-trifluoro-ethyl)-amide]]", "values": [{"measurement": "IC50", "value": 900, "unit": "nM"}]}
{"compound": "Cn1ncc(C(=O)NCc2cocn2)c1C(=O)Nc1ccn2cc(-c3ccccc3)nc2n1", "note": "[Example 112, 1-methyl-N4-(oxazol-4-ylmethyl)-N5-(2-phenylimidazo[1,2-a]pyrimidin-7-yl)-1H-pyrazole-4,5-dicarboxamide]", "values": [{"measurement": "IC50", "value": 1.3, "unit": "nM"}]}
{"compound": "CC(C)Cn1ncc(Cl)c1C(=O)Nc1ccn2cc(-c3ccccc3)nc2n1", "note": "[Example 12, 4-Chloro-2-isobutyl-2H-pyrazole-3-carboxylic acid (2-phenyl-imidazo[1,2-a]pyrimidin-7-yl)-amide]", "values": [{"measurement": "IC50", "value": 18.8, "unit": "nM"}]}
{"compound": "CN(C)C(=O)c1cnn(C)c1C(=O)Nc1ccn2cc(-c3cccc(F)c3)nc2n1", "note": "[Example 94, 2-Methyl-2H-pyrazole-3,4-dicarboxylic acid 4-dimethylamide 3-{[2-(3-fluoro-phenyl)-imidazo[1,2-a]pyrimidin-7-yl]amide}]", "values": [{"measurement": "IC50", "value": 11.2, "unit": "nM"}]}
{"compound": "COCCN(C)C(=O)c1cnn(C)c1C(=O)Nc1ccn2cc(-c3cccc(OCF)c3)nc2n1", "note": "[Example 99, 2-Methyl-2H-pyrazole-3,4-dicarboxylic acid 3-{[2-(3-fluoromethoxy-phenyl)-imidazo[1,2-a]pyrimidin-7-yl]-amide}-4-[(2-methoxy-ethyl)-methyl-amide]]", "values": [{"measurement": "IC50", "value": 19, "unit": "nM"}]}
{"compound": "Cc1nn(C)c(C(=O)Nc2ccn3cc(-c4ccccc4)nc3n2)c1Br", "note": "[Example 5, 4-Bromo-2,5-dimethyl-2H-pyrazole-3-carboxylic acid (2-phenyl-imidazo[1,2-a]pyrimidin-7-yl)-amide]", "values": [{"measurement": "IC50", "value": 26.8, "unit": "nM"}]}
{"compound": "Cn1ncc(C(=O)NCc2cn3ccccc3n2)c1C(=O)Nc1ccn2cc(-c3ccccc3)nc2n1", "note": "[Example 149, N4-(imidazo[1,2-a]pyridin-2-ylmethyl)-1-methyl-N5-(2-phenylimidazo[1,2-a]pyrimidin-7-yl)-1H-pyrazole-4,5-dicarboxamide]", "values": [{"measurement": "IC50", "value": 260, "unit": "nM"}]}
{"compound": "CCN(C)C(=O)c1cnn(C)c1C(=O)Nc1ccn2cc(-c3cccc(OCC(=O)OC)c3)nc2n1", "note": "[Example 100, [3-(7-{[4-(Ethyl-methyl-carbamoyl)-2-methyl-2H-pyrazole-3-carbonyl]-amino}-imidazo[1,2-a]pyrimidin-2-yl)-phenoxy]-acetic acid methyl ester]", "values": [{"measurement": "IC50", "value": 21.8, "unit": "nM"}]}
{"compound": "CCn1ncc(C(=O)N2CCC2)c1C(=O)Nc1ccn2cc(-c3ccccc3)nc2n1", "note": "[Example 69, 4-(Azetidine-1-carbonyl)-2-ethyl-2H-pyrazole-3-carboxylic acid (2-phenyl-imidazo[1,2-a]pyrimidin-7-yl)-amide]", "values": [{"measurement": "IC50", "value": 4.4, "unit": "nM"}]}
{"compound": "Cn1ncc(C(=O)NCc2ccccn2)c1C(=O)Nc1ccn2cc(-c3ccccc3)nc2n1", "note": "[Example 118, 1-methyl-N5-(2-phenylimidazo[1,2-a]pyrimidin-7-yl)-N4-(pyridin-2-ylmethyl)-1H-pyrazole-4,5-dicarboxamide]", "values": [{"measurement": "IC50", "value": 11.9, "unit": "nM"}]}
{"compound": "Cn1ncc(C(=O)N2CC3(COC3)C2)c1C(=O)Nc1ccn2cc(-c3ccccc3)nc2n1", "note": "[Example 132, 1-methyl-N-(2-phenylimidazo[1,2-a]pyrimidin-7-yl)-4-(2-oxa-6-azaspiro[3.3]heptane-6-carbonyl)-1H-pyrazole-5-carboxamide]", "values": [{"measurement": "IC50", "value": 48.6, "unit": "nM"}]}
{"compound": "COc1cccc(-c2cn3ccc(NC(=O)c4c(C(=O)N(C)CCF)cnn4C)nc3n2)c1", "note": "[Example 111, 2-Methyl-2H-pyrazole-3,4-dicarboxylic acid 4-[(2-fluoro-ethyl)-methyl-amide]3-{[2-(3-methoxy-phenyl)-imidazo[1,2-a]pyrimidin-7-yl]amide}]", "values": [{"measurement": "IC50", "value": 364, "unit": "nM"}]}
